Experiments:
[1] = tested on: A31A7 macrophages and BMDMs; test: Macrophage cell surface marker expression by flow cytometry; type: cell-based, mouse
Method: (§1) Bone marrow-derived macrophages were isolated from the femurs and tibias of wild-type C57/Bl6, HDAC6 knockout (C57BL/6J-Hdac6em2Lutzy/J, 029318, Jackson Laboratory), or UBC-GFP (C57BL/6-Tg(UBC-GFP)30Scha/J, 004353, Jackson Laboratory). Isolated bone marrow cells were cultured in RPMI 1640 complete medium with 10% FBS, 1% NEAA, and 1% penicillin-streptomycin in 5% CO2 at 37° C. Medium was supplemented with murine recombinant M-CSF (20 ng/mL, 576404, Biolegend) to differentiate monocytes into macrophages. Three days after bone marrow isolation, undifferentiated and floating cells were washed with PBS and replaced with fresh RPMI media. A3.1A7 cells and BMDMs were pretreated with 5 μM of HDAC6 inhibitor NextA or vehicle prior to adding polarizing cytokines.
Macrophages were polarized to M1-like phenotype using 50 ng/mL of interferon gamma (IFNγ, 575306, Biolegend) and 100 ng/mL of bacterial lipopolysaccharide (LPS, L2880, Sigma Aldrich, St. Louis, MO) for 24 hours. To polarize macrophages towards the M2-like phenotype, macrophages were stimulated with 20 ng/mL of IL-4 (214-14, PeproTech) and 20 ng/mL of IL-13 (575904, Biolegend). THP1 monocytes were treated with 5 ng/mL of phorbol 12-myristate 13-acetate (PMA) to induce differentiation into macrophages. Once converted to macrophages, media was replaced to remove PMA prior to treatment and/or polarization. […]

SIRPα = SIRPα gene expression in THP1-derived macrophages by qRT-PCR; type: cell-based, human; details: qRT-PCR (FIG. 2A)
Method: Macrophages were polarized to M1-like phenotype using 50 ng/mL of interferon gamma (IFNγ, 575306, Biolegend) and 100 ng/mL of bacterial lipopolysaccharide (LPS, L2880, Sigma Aldrich, St. Louis, MO) for 24 hours. To polarize macrophages towards the M2-like phenotype, macrophages were stimulated with 20 ng/mL of IL-4 (214-14, PeproTech) and 20 ng/mL of IL-13 (575904, Biolegend). THP1 monocytes were treated with 5 ng/mL of phorbol 12-myristate 13-acetate (PMA) to induce differentiation into macrophages. Once converted to macrophages, media was replaced to remove PMA prior to treatment and/or polarization. Polarization towards M1 and M2 phenotypes was performed with respective recombinant human cytokines from PeproTech: 50 ng/mL of IFNγ (300-02), 20 ng/mL IL-4 (200-04), and 20 ng/mL IL-13 (200-13). 100 ng/mL LPS was also used to polarize toward the M1 phenotype. 3. In vivo Studies.
qRT-PCR: Total RNA was extracted from cells using the Trizol reagent according to manufacturer's instructions (ThermoFisher Scientific, 15596018). […] RNA was quantified using a NanoDrop One Spectrophotometer (ThermoFisher Scientific). […] Target mRNA was quantified using MyIQ single-color real-time PCR detection system from Bio-Rad (Bio-Rad, Hercules, CA) and iQ SYBR green Supermix (Bio-Rad, 1708882). […] Quantification is expressed in arbitrary units and target mRNA levels were normalized to R-actin expression.

primary mouse BMDMs = test: Pro-phagocytic signal gene expression in BMDMs; type: cell-based
Method: as §1
qRT-PCR: Total RNA was extracted from cells using the Trizol reagent according to manufacturer's instructions (ThermoFisher Scientific, 15596018). Samples were then processed immediately or stored at −80° C. RNA was quantified using a NanoDrop One Spectrophotometer (ThermoFisher Scientific). The 260/280 ratios were routinely over 1.8. […] Target mRNA was quantified using MyIQ single-color real-time PCR detection system from Bio-Rad (Bio-Rad, Hercules, CA) and iQ SYBR green Supermix (Bio-Rad, 1708882). […] Quantification is expressed in arbitrary units and target mRNA levels were normalized to R-actin expression.

SMILES: CCCCN(Cc1ccc(C(=O)NO)cc1)C(=O)Nc1ccccc1 [NextA, Nexturastat A]
- cell surface expression of CD80 and H2 ([1]; A31A7 and BMDMs polarized to M1-like phenotypes, 5 μM (FIG. 1B)): upregulation
- CD206 surface expression ([1]; A31A7 cells and BMDMs, M2, 5 μM (FIG. 1D)): significantly downregulated
- SIRPα expression at the transcriptional level (SIRPα): significantly downregulated
- expression of Lrp1, Cd36, and Mfge8 (primary mouse BMDMs): significant increase

Reference: patent US20230391868A1, “COMPOSITIONS FOR AND METHODS OF TREATING CANCER” (The George Washington University, priority 2022, published 2023)
